Source: publication PMC11431785, “From In Vitro Promise to In Vivo Reality: An Instructive Account of Infection Model Evaluation of Antimicrobial Peptides” (International Journal of Molecular Sciences, 2024)
Residues, ends and D or L forms follow the SMILES beside them. No end group written: not given here.

Assays:
Balb/c mice [1] = experiment: Sighting study (tolerance in mice); format: in vivo, mouse; conditions: for tolerance in sighting study: i.p., 30 mg/kg for Ctn[15-34] and Ctn[15-34] re, 3 mg/kg for Ctn re as initial doses; for time to death of an animal: sighting study, one animal
Experimental: To determine the maximum lethal dose and appropriate doses for the main study, a sighting study (Figure 2A) was first conducted. Peptides (Ctn[15-34], Ctn[15-34] re and Ctn re) were administered intraperitoneally (i.p.) at initial doses of 30 mg/kg for Ctn[15-34] and Ctn[15-34] re and 3 mg/kg for Ctn re. If no toxicity signs were observed, the dose was increased. If toxicity signs or death occurred, a lower dose was administered to another animal until an adequate dose was found. After the sighting study was completed, two main studies were performed.
(§1) Nine clinical parameters were assessed by a scoring system (see Table S1). For each parameter a score from 0 to 3 in increasing severity was used. In the sighting (tolerance) study, the clinical score was measured at 10 min, 30 min, 1 h, 2 h, 4 h, 7 h, 24 h, and 48 h after peptide administration. In assays 1 and 2 of the tolerance study, scoring was recorded twice a week for 2 weeks. In the efficacy study, the clinical score was recorded every 2–3 h on day 0 and twice a day on days 1 and 2. An animal was euthanized if it scored 3 on any parameter, or if a combined score of 7 or above was reached.

Balb/c mice [2] = experiment: Tolerance assay 1; format: in vivo, mouse; conditions: single i.p. dose, 30 mg/kg Ctn[15-34], 3 mg/kg Ctn re, five female mice per group, 14 days
Experimental: Assay 1: […] randomly distributed groups of five female mice each were used for Ctn[15-34] (30 mg/kg) and Ctn re (3 mg/kg) and negative control (HBS). Ctn[15-34] re was not included due to spontaneous mortality in the sighting study, even at low concentrations. The peptide was administered i.p., and mice were monitored twice on day 0, once a day until day 4, and then three times a week. The study lasted for 14 days, after which the animals were euthanized, and a systematic necropsy was performed.
(§2) Body weight (BW, g) gain (%) was determined at different stages. In the tolerance assays, BW gain was recorded before inoculation and twice a week for 2 weeks. In the efficacy studies, BW gain was likewise measured before inoculation and then twice a day.
as §1

[3] = cited from earlier work; for t1/2: human serum mixed 1:1 with peptide 1 mM in water, 37 °C with stirring, aliquots 0-1440 min, TCA precipitation, HPLC
Excerpt: (§3) Table 1 Sequence and properties of peptides in this study. | column: t1/2 (min) || In this work, we focus on crotalicidin (Ctn), a 34-residue AMP from the venom of Crotalus durissus terrificus, a South American pit viper. […] It is, however, slightly toxic to eukaryotic cells, including cancer cells, which makes it a good anticancer peptide (ACP) candidate. Virtual Ctn dissection with elastase yields two fragments, Ctn[1-14] and Ctn[15-34]. While the former (KRFKKFFKKVKKSV) retains the α-helical conformation of Ctn, it loses both the anticance ...

[4] = fragments compared with Ctn; cited from earlier work
Excerpt: as §3, with “In” for “Table 1 Sequence and properties of peptides in this study. | column: t1/2 (min) || In”

A. baumannii [5] = experiment: Histopathology: hematoxylin and eosin stain and tissue Gram stain; format: in vivo, mouse; conditions: infected and treated mice
Experimental: Following termination of the animals, the following organs were harvested and preserved: right lung, digestive system, pancreas, kidneys, liver, spleen, and brain. These organs were fixed in paraformaldehyde at 4 °C for 24 h.
The tissue processing proceeded through a stepwise procedure. Firstly, the tissues underwent a rinse with formalin for 1.5 h, followed by cleaning with distilled water for 5 min. Subsequently, they were dehydrated using a series of graded ethanol solutions: 80% ethanol for 1 h, 96% ethanol for two consecutive immersions lasting 1 h each, and finally, 100% ethanol for 2 consecutive immersions of 1 h each and an additional immersion for 1.5 h. Following dehydration, the tissues were submerged in xylene for two immersions, each lasting 1.5 h, before being placed in hot liquid paraffin for two consecutive immersions of 1 h each and an additional immersion of 2 h. The treated specimens were embedded in tissue cassettes using a TissueTek embedding console and allowed to cool until the paraffin solidified.
From each paraffin block, […] sections were cut using a microtome (Leica) and mounted on slides. These slides underwent rehydration through a series of graded alcohols: 100% ethanol for 5 min, 85% ethanol for 5 min, 70% ethanol for 5 min, and distilled water. […] After drying, the sections were analyzed using a microscope (Leica DMR, Leica Biosystems, IL, United States). […]

A. baumannii [6] = experiment: Efficacy assay 2 in mouse systemic infection model; format: in vivo
Experimental: (§4) A systemic infection model was established in mice, as described before. Briefly, an aliquot from A. baumannii stock in 15% glycerol at −80 °C was taken to culture in 3 mL of LB overnight at 37 °C and 250 rpm. After an OD600 reading to adjust bacterial concentration, the culture was diluted with an identical volume of 10% porcine mucin (an enhancer of bacterial infectivity) to a final 1 × 10^8 CFU/mL concentration. A 10 mL/kg inoculation volume was used for each animal.
Assay 2: In total, 24 mice (12 male, 12 female) randomly distributed into six groups were infected i.p. as described above, then treated in duplicate groups with Ctn[15-34] (20 mg/kg), colistin (5 mg/kg, positive control) or vehicle (HBS, negative control). Treatment (performed blindly) was applied i.p. 2 h after infection and then every 4 h during day 0, and thrice daily for the next 2 days. All animals were checked for clinical signs twice a day for three days, as described in Table S1. On day 2, animals were euthanized with a 200 mg/kg i.p. dose of pentobarbital.
as §1

A. baumannii [7] = experiment: Colony-forming units (CFU) in mouse tissues; format: in vivo
Experimental: CFUs in the spleen and lungs of animals in the efficacy studies were counted after euthanasia. One lung and half of the spleen were extracted from each animal. Animals found dead overnight were excluded. The organs were weighed and homogenized in 1 mL of HBS. Subsequently, six serial 10-fold dilutions were prepared, each dilution seeded on a Petri dish with LB-agar and colonies counted after 16 h incubation at 37 °C. Final CFU counts are expressed relative to organ weight (CFU/g).

A. baumannii [8] = experiment: Efficacy assay 1 in mouse systemic infection model; format: in vivo
Experimental: as §4
Assay 1: A total of 24 mice (12 male, 12 female) randomly distributed into four groups were infected i.p. as described above, then each group was treated with Ctn[15-34] (30 mg/kg), Ctn re (3 mg/kg), colistin (10 mg/kg, positive control) or vehicle (HBS, negative control). Treatment (performed blindly) was applied 2 h after infection in a single i.p. dose. […]
as §1, with “For each parameter a score from 0 to 3 in increasing severity was used.” left out

A. baumannii [9] = conditions: MHB, inoculum 5 × 10^5 CFU/mL, 20–22 h at 37 °C, 0.04% BSA and 0.002% acetic acid, duplicate; cited from earlier work
Excerpt: Table 1 Sequence and properties of peptides in this study. | column: MIC (μM) A. baumannii

[10] = tested on: 1BR3G human fibroblast cells; conditions: cytotoxicity, RPMI 2% FBS, Cell Titer Blue, triplicate; cited from earlier work
Excerpt: Table 1 Sequence and properties of peptides in this study. | column: IC50 (μM)

Balb/c mice [11] = experiment: Tolerance assay 2; format: in vivo, mouse
Experimental: Assay 2: Two randomly distributed groups of six female mice each were given two different concentrations of Ctn[15-34] (30 and 20 mg/kg). Each animal was treated with each dose three times a day for three days.
as §2, §1

## CC[C@@H](C)[C@@H](NC(=O)CNC(=O)[C@H](NC(=O)[C@H](NC(=O)[C@H](NC(=O)[C@H]1CCCN1C(=O)[C@H](N)Cc1ccccc1)[C@H](C)CC)[C@H](C)O)C(C)C)C(=O)N[C@@H](C(=O)N[C@H](CCSC)C(=O)N1CCC[C@@H]1C(=O)N[C@H](CCCCN)C(=O)N[C@H](CCCCN)C(=O)N[C@H](Cc1ccccc1)C(=O)N[C@@H](C(=O)N[C@H](CCCCN)C(=O)N[C@H](CCCCN)C(=O)N[C@H](CC(C)C)C(=O)N[C@H](CCCNC(=N)N)C(=O)N[C@H](CCCCN)C(=O)N[C@H](CCCCN)C(=O)N[C@@H](C(=O)N[C@H](CO)C(=O)N[C@H](CCCCN)C(=O)N[C@H](CCCCN)C(=O)N[C@@H](C(=O)N[C@H](CCCCN)C(=O)N[C@H](CCCCN)C(=O)N[C@H](Cc1ccccc1)C(=O)N[C@H](Cc1ccccc1)C(=O)N[C@H](CCCCN)C(=O)N[C@H](CCCCN)C(=O)N[C@H](Cc1ccccc1)C(=O)N[C@H](CCCNC(=N)N)C(=O)N[C@H](CCCCN)C(N)=O)C(C)C)C(C)C)[C@H](C)CC)C(C)C [Ctn re] (HELM PEPTIDE1{[dF].[dP].[dI].[dT].[dV].G.[dI].[dV].[dM].[dP].[dK].[dK].[dF].[dI].[dK].[dK].[dL].[dR].[dK].[dK].[dV].[dS].[dK].[dK].[dV].[dK].[dK].[dF].[dF].[dK].[dK].[dF].[dR].[dK].[am]}$$$$V2.0)
Balb/c mice [1]
  tolerance in sighting study: viable at the predicted dosages
Balb/c mice [2]
  clinical condition in tolerance assay 1: most animals showed improved clinical conditions in the following days
[3]
  t1/2: 3.52 h

## LL-37: AMP named for comparison of half-life [reference compound]
[3]; typical AMP named for comparison with Ctn[15-34], no reference given
  half-life: 1 h

## CC[C@@H](C)[C@@H](NC(=O)CNC(=O)[C@H](NC(=O)[C@H](NC(=O)[C@H](NC(=O)[C@H]1CCCN1C(=O)[C@H](N)Cc1ccccc1)[C@H](C)CC)[C@H](C)O)C(C)C)C(=O)N[C@@H](C(=O)N[C@H](CCSC)C(=O)N1CCC[C@@H]1C(=O)N[C@H](CCCCN)C(=O)N[C@H](CCCCN)C(=O)N[C@H](Cc1ccccc1)C(=O)N[C@@H](C(=O)N[C@H](CCCCN)C(=O)N[C@H](CCCCN)C(=O)N[C@H](CC(C)C)C(=O)N[C@H](CCCNC(=N)N)C(=O)N[C@H](CCCCN)C(=O)N[C@H](CCCCN)C(N)=O)[C@H](C)CC)C(C)C [Ctn[15-34] re] (HELM PEPTIDE1{[dF].[dP].[dI].[dT].[dV].G.[dI].[dV].[dM].[dP].[dK].[dK].[dF].[dI].[dK].[dK].[dL].[dR].[dK].[dK].[am]}$$$$V2.0)
Balb/c mice [1]; 5 mg/kg i.p.
  time to death of an animal: 33 min
Balb/c mice [1]; 15 mg/kg i.p.
  time to death of an animal: ≤ 6 min
Balb/c mice [1]; 30 mg/kg i.p.
  time to death of an animal: ≤ 3 min
Balb/c mice [1]
  tolerance in sighting study: toxic
[3]
  t1/2: 15.4 h

## KRFKKFFKKVKKSV [Ctn[1-14], fragment of crotalicidin, residues 1-14]
[4]
  anticancer and antimicrobial properties: loses both the anticancer and antimicrobial properties

## colistin
A. baumannii [5]
  Gram stain, bacterial load in spleen, lung, liver and kidney: no evidence of bacterial survival
A. baumannii [6]; efficacy study 2, thrice daily dose of colistin, compared to the previous study
  clinical signs of treated infected animals: Increased toxicity
A. baumannii [6]; efficacy study 2, thrice daily i.p. dosing, female mice
  female animals surviving at the endpoint: 75%
A. baumannii [6]; efficacy study 2, thrice daily i.p. dosing, male mice
  male animals surviving at the endpoint: 50%
A. baumannii [7]; after both efficacy studies, positive control group
  CFU/g in left lung and spleen: 10^1–10^2 CFU/g
A. baumannii [7]; efficacy study 2, animals not surviving the thrice daily colistin dosage
  bacterial presence in the spleen or lungs: nearly negligible
A. baumannii [8]; efficacy assay 1, colistin 10 mg/kg single i.p. dose
  clinical signs of treated infected animals: weight loss on the first day with subsequent recovery
A. baumannii [8]; efficacy assay 1, single i.p. dose 2 h after infection, colistin 10 mg/kg, 3 days
  survival rate: 100%

## crotalicidin [Ctn]
A. baumannii [9]
  MIC (μM) A. baumannii: 0.78 µM
[3]
  t1/2: 1.18 h
[10]
  IC50: 14.3 µM

## KKRLKKIFKKPMVIGVTIPF-NH2 [Ctn[15-34]]
A. baumannii [5]
  hematoxylin and eosin staining of spleen, lung, liver and kidney: apoptosis was noted in the spleen lymphocytes of one animal
Balb/c mice [11]; 20 mg/kg i.p. thrice daily for 3 days, compared with 30 mg/kg
  clinical signs in tolerance assay 2: reversible and consistently lower than for the 30 mg/kg group
Balb/c mice [11]; 30 and 20 mg/kg i.p. thrice daily for three days, both dosage groups, six female mice each
  BW loss during the first 24 h: 6–9%
Balb/c mice [1]
  tolerance in sighting study: viable at the predicted dosages
Balb/c mice [2]
  clinical condition in tolerance assay 1: most animals showed improved clinical conditions in the following days
[3]
  t1/2: 12.8 h
